Experimental data from patent publication US9765037B2, “Compositions and methods for treating toxoplasmosis, cryptosporidiosis, and other apicomplexan protozoan related diseases” (University of Washington Through its Center for …, priority 2010, dated 2017).

Assays:
[1] = molecular target: PfCDPK1 (Plasmodium falciparum (isolate 3D7), UniProt P62344); assay: biochemical
[2] = molecular target: PfCDPK4 (Plasmodium falciparum (isolate 3D7), UniProt Q8IBS5); assay: biochemical

Compound | EC50 [1] [nM] | EC50 [2] [nM]
Nc1ncnc2c1c(-c1ccc3cc(OCc4ccc(Cl)cc4)ccc3c1)nn2CC1CCNCC1 [Compound 39, 3-(6-(4-chlorobenzyloxy)naphthalen-2-yl)-1-(piperidin-4-ylmethyl)-1H-pyrazolo[3,4-d]pyrimidin-4-amine] | 21.1 | 9.2
CC(C)COc1ccc2cc(-c3nn(C(C)C)c4ncnc(N)c34)ccc2c1 [Compound 43, 3-(6-isobutoxynaphthalen-2-yl)-1-isopropyl-1H-pyrazolo[3,4-d]pyrimidin-4-amine] | 278 | 1200
Cc1ccc(C)c(COc2ccc3cc(-c4nn(C(C)C)c5ncnc(N)c45)ccc3c2)c1 [Compound 48, 3-(6-(2,5-dimethylbenzyloxy)naphthalen-2-yl)-1-isopropyl-1H-pyrazolo[3,4-d]pyrimidin-4-amine] | 2280 | > 3000
Cc1ccccc1COc1ccc2cc(-c3nn(C(C)C)c4ncnc(N)c34)ccc2c1 [Compound 49, 1-isopropyl-3-(6-(2-methylbenzyloxy)naphthalen-2-yl)-1H-pyrazolo[3,4-d]pyrimidin-4-amine] | 688 | 2350
Cc1ccc(C(F)(F)F)cc1COc1ccc2cc(-c3nn(C(C)C)c4ncnc(N)c34)ccc2c1 [Compound 50, 1-isopropyl-3-(6-(2-methyl-5-(trifluoromethyl)benzyloxy)naphthalen-2-yl)-1H-pyrazolo[3,4-d]pyrimidin-4-amine] | 2090 | > 3000
CC(C)n1nc(-c2ccc3cc(OCc4ccc(CC(F)(F)F)c(Cl)c4)ccc3c2)c2c(N)ncnc21 [Compound 51, 3-(6-(3-chloro-4-(2,2,2-trifluorethyl)benzyloxy)naphthalen-2-yl)-1-isopropyl-1H-pyrazolo[3,4-d]pyrimidin-4-amine] | 1600 | 260
CC(C)n1nc(-c2ccc3cc(OCc4cc(F)cc(Cl)c4)ccc3c2)c2c(N)ncnc21 [Compound 52, 3-(6-(3-chloro-5-fluorobenzyloxy)naphthalen-2-yl)-1-isopropyl-1H-pyrazolo[3,4-d]pyrimidin-4-amine] | 1070 | 1230
CC(Oc1ccc2cc(-c3nn(C(C)C)c4ncnc(N)c34)ccc2c1)c1ccccc1 (centres unmarked) [Compound 53, 1-isopropyl-3-(6-(1-phenylethoxy)naphthalen-2-yl)-1H-pyrazolo[3,4-d]pyrimidin-4-amine] | 532 | 1640
CC(C)n1nc(-c2ccc3cc(OCc4ccc(C(C)(C)C)cc4)ccc3c2)c2c(N)ncnc21 [Compound 54, 3-(6-(4-tert-butylbenzyloxy)naphthalen-2-yl)-1-isopropyl-1H-pyrazolo[3,4-d]pyrimidin-4-amine] | 47.8 | 438
CC(C)n1nc(-c2ccc3cc(OCc4ccncc4)ccc3c2)c2c(N)ncnc21 [Compound 55, 1-isopropyl-3-(6-(pyridin-4-ylmethoxy)naphthalen-2-yl)-1H-pyrazolo[3,4-d]pyrimidin-4-amine] | 216 | 175
Cn1ccc2cc(-c3nn(CC4CCNCC4)c4ncnc(N)c34)ccc21 [Compound 57, 3-(1-methyl-1H-indol-5-yl)-1-(piperidin-4-ylmethyl)-1H-pyrazolo[3,4-d]pyrimidin-4-amine] | 705 | 243
N#Cc1cccc(-c2ccc(-c3nn(CC4CCNCC4)c4ncnc(N)c34)cc2)c1 [Compound 74, 4′-(4-amino-1-(piperidin-4-ylmethyl)-1H-pyrazolo[3,4-d]pyrimidin-3-yl)biphenyl-3-carbonitrile] | 347 | 1010
COC(=O)Nc1nc2ccc(C(O)c3ccccc3)cc2[nH]1 (centres unmarked) [Compound 82] | > 3000 | > 3000
CC(C)n1nc(-c2ccc3cc(OC(=O)c4cccc(Cl)c4)ccc3c2)c2c(N)ncnc21 [Compound 85] | 229 | 479
Nc1ncnc2c1c(-c1ccc(-c3ccccc3)cc1)nn2CC1CCNCC1 [Compound 100] | 74.9 | 908
CC(C)COc1ccc2cc(-c3nn(C(C)(C)C)c4ncnc(N)c34)ccc2c1 [Compound 130] | 2950 | > 3000
